Assay results from patent US6391280B1, “J chain polypeptide targeting molecule linked to an imaging agent” (Epicyte Pharmaceutical, Inc., priority 1997, dated 2002).
Marks after values point to notes of the source that are not given here.

Assay: Molar Relaxivities 1/T1 of Paramagnetic Compounds
Type: physicochemical
Details: in water at 10.7 MHz, 37° C. (values marked *)

Structure (SMILES)	Relaxation rate, molar relaxivity 1/T1
[Cl][Gd]([Cl])[Cl] [GdCl]	14.67* (mMs)^−1
O=S(=O)([O-])c1ccc(-c2c3nc(c(-c4ccc(S(=O)(=O)[O-])cc4)c4ccc([n-]4)c(-c4ccc(S(=O)(=O)[O-])cc4)c4ccc([n-]4)c(-c4ccc(S(=O)(=O)[O-])cc4)c4nc2C=C4)C=C3)cc1.[Mn+3] [MnTPPS4]	10.39* (mMs)^−1
O=C([O-])CN(CCN(CC(=O)[O-])CC(=O)O)CCN(CC(=O)[O-])CC(=O)O.[Gd+3] [GDDTP A]	5.05* (mMs)^−1
[Cl][Mn][Cl] [MnCl2]	9.32* (mMs)^−1
